ChEMBL document CHEMBL3621205, “High-Throughput Screening of Patient-Derived Cultures Reveals Potential for Precision Medicine in Glioblastoma” (ACS Med Chem Lett, 2015)
Calls of active or inactive are those of the source. The calls are words filed in the database; no cut-off is given here.

Experiments:
Type in all cases: functional, cell-based
Glioma [1] = assay: Cytotoxicity against human Glioma cells (HF2303) at 50 uM after 72 hrs by CelltiterGlo assay
Glioma [2] = assay: Cytotoxicity against human Glioma cells (HF2381) at 50 uM after 72 hrs by CelltiterGlo assay
Glioma [3] = assay: Cytotoxicity against human Glioma cells (HF2476) at 50 uM after 72 hrs by CelltiterGlo assay
Glioma [4] = assay: Cytotoxicity against human Glioma cells (HF2790) at 50 uM after 72 hrs by CelltiterGlo assay
Glioma [5] = assay: Cytotoxicity against human Glioma cells (HF2876) at 50 uM after 72 hrs by CelltiterGlo assay
Glioma [6] = assay: Cytotoxicity against human Glioma cells (HF2885) at 50 uM after 72 hrs by CelltiterGlo assay
Glioma [7] = assay: Cytotoxicity against human Glioma cells (HF3013) at 50 uM after 72 hrs by CelltiterGlo assay
Glioma [8] = assay: Cytotoxicity against human Glioma cells (HF2303) after 72 hrs by CelltiterGlo assay
Glioma [9] = assay: Cytotoxicity against human Glioma cells (HF2476) after 72 hrs by CelltiterGlo assay
Glioma [10] = assay: Cytotoxicity against human Glioma cells (HF2876) after 72 hrs by CelltiterGlo assay
Glioma [11] = assay: Cytotoxicity against human Glioma cells (HF3013) after 72 hrs by CelltiterGlo assay
Glioma [12] = assay: Induction of apoptosis in human Glioma cells (HF2476) assessed as increase in cleaved caspase-3 level by western blot analysis
Glioma [13] = assay: Induction of apoptosis in human Glioma cells (HF2876) assessed as increase in cleaved caspase-3 level by western blot analysis
Glioma [14] = assay: Cytotoxicity against human Glioma cells (HF2476) after 72 hrs by CelltiterGlo assay in presence of mTOR inhibitor AZD-8055
Glioma [15] = assay: Cytotoxicity against human Glioma cells (HF3013) after 72 hrs by CelltiterGlo assay in presence of mTOR inhibitor AZD-8055
Glioma [16] = assay: Cytotoxicity against human Glioma cells (HF2303) after 72 hrs by CelltiterGlo assay in presence of mTOR inhibitor AZD-8055
Glioma [17] = assay: Cytotoxicity against human Glioma cells (HF2876) after 72 hrs by CelltiterGlo assay in presence of mTOR inhibitor AZD-8055
Glioma [18] = assay: Decrease in phosphorylated S6 ribosomal protein level at Ser235 residue in human Glioma cells (HF2476) by western blot analysis
Glioma [19] = assay: Decrease in phosphorylated S6 ribosomal protein level at Ser236 residue in human Glioma cells (HF2476) by western blot analysis
Glioma [20] = assay: Decrease in phosphorylated S6 ribosomal protein level at Ser235 residue in human Glioma cells (HF2876) by western blot analysis
Glioma [21] = assay: Decrease in phosphorylated S6 ribosomal protein level at Ser236 residue in human Glioma cells (HF2876) by western blot analysis
Glioma [22] = assay: Cytotoxicity against human Glioma cells (HF2476) after 72 hrs by CelltiterGlo assay in presence of Bcl2-inhibitor ABT-263
Glioma [23] = assay: Cytotoxicity against human Glioma cells (HF3013) after 72 hrs by CelltiterGlo assay in presence of Bcl2-inhibitor ABT-263
Glioma [24] = assay: Cytotoxicity against human Glioma cells (HF2303) after 72 hrs by CelltiterGlo assay in presence of Bcl2-inhibitor ABT-263
Glioma [25] = assay: Cytotoxicity against human Glioma cells (HF2876) after 72 hrs by CelltiterGlo assay in presence of Bcl2-inhibitor ABT-263

**Q.** Which Activity (Glioma [1]) does the source give for `Cn1nnc2c(C(N)=O)ncn2c1=O` here?
**A.** Its Activity is “inactive”.

**Q.** What about the Activity (Glioma [2]) of the same molecule?
**A.** The Activity was “inactive”.

**Q.** And the Activity (Glioma [3])?
**A.** The Activity was “inactive”.

**Q.** And the Activity (Glioma [4])?
**A.** The Activity was “inactive”.

**Q.** And the Activity (Glioma [5])?
**A.** Its Activity is “inactive”.

**Q.** What about the Activity (Glioma [6]) of the same molecule?
**A.** Its Activity is “inactive”.

**Q.** And the Activity (Glioma [7])?
**A.** The Activity was “inactive”.

**Q.** Which Activity (Glioma [8]) does the source give for `CC1(C)CCC(c2ccc(Cl)cc2)=C(CN2CCN(c3ccc(C(=O)NS(=O)(=O)c4ccc(N[C@H](CCN5CCOCC5)CSc5ccccc5)c(S(=O)(=O)C(F)(F)F)c4)cc3)CC2)C1` here?
**A.** The Activity was “inactive”.

**Q.** And the Activity (Glioma [9])?
**A.** The Activity was “inactive”.

**Q.** What about the Activity (Glioma [10]) of the same molecule?
**A.** Its Activity is “inactive”.

**Q.** And the Activity (Glioma [11])?
**A.** The Activity was “inactive”.

**Q.** And the Activity (Glioma [12])?
**A.** Its Activity is “Active”.

**Q.** And the Activity (Glioma [13])?
**A.** The Activity was “Active”.

**Q.** And the Activity (Glioma [14])?
**A.** The Activity was “Active”.

**Q.** What about the Activity (Glioma [15]) of the same molecule?
**A.** The Activity was “Active”.

**Q.** What about the Activity (Glioma [16]) of the same molecule?
**A.** Its Activity is “Active”.

**Q.** What about the Activity (Glioma [17]) of the same molecule?
**A.** Its Activity is “Active”.

**Q.** Which inhibition (Glioma [18]) does the source give for `COc1ccc(-c2ccc3c(N4CCOC[C@@H]4C)nc(N4CCOC[C@@H]4C)nc3n2)cc1CO` here?
**A.** The inhibition was “Active”.

**Q.** And the inhibition (Glioma [19])?
**A.** The inhibition was “Active”.

**Q.** And the inhibition (Glioma [20])?
**A.** Its inhibition is “Active”.

**Q.** And the inhibition (Glioma [21])?
**A.** The inhibition was “Active”.

**Q.** And the Activity (Glioma [22])?
**A.** Its Activity is “Active”.

**Q.** What about the Activity (Glioma [23]) of the same molecule?
**A.** Its Activity is “Active”.

**Q.** And the Activity (Glioma [24])?
**A.** Its Activity is “inactive”.

**Q.** What about the Activity (Glioma [25]) of the same molecule?
**A.** The Activity was “inactive”.
